# Reference: patent publication US20250163119A1, “COMPOUNDS FOR THE TREATMENT OF DIABETES OR OBESITY” (Eli Lilly and Company, priority 2023, published 2025)
# Values joined by “and” are separate entries in the source; they are usually repeats but may differ in a detail not shown here. Identical values can stand only once. Like-named read-outs stand apart in the source and are kept apart here. *1 amine or outer side, *2 acyl side, *3 side chain or, on linkers, in order; H or OH if unused. Side-chain parts run from the residue outwards. [ ]: non-standard residue; d: D form. The star is where a group is joined. C20 diacid = O=C(O)CCCCCCCCCCCCCCCCCCC(=O)*; γGlu = O=C(O)[C@H](CCC(=O)[*:2])N[*:1]; εLys = N[C@@H](CCCCN[*:1])C(=O)[*:2]; pGlu = O=C1CC[C@@H](C(=O)O)N1; αMeL = CC(C)C[C@](C)(N)C(=O)O; AEEA = NCCOCCOCC(=O)O; Aib = CC(C)(N)C(=O)O
# Columns and labels:
# [1] = tested on: MHC-II presented peptides on human dendritic cells; assay: MAPPS assay (MHC-Associated Peptide Proteomics); type: cell-based
# Procedure, shortened: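 Peptides eluted from anti-MHC-II immunoprecipitates of day-6 DC lysates were sequenced by MS, mapped onto the parent test molecule, and scored as percentage of donors presenting each region. DCs derived from donor CD14+ cells (IL-4, GM-CSF) received test molecules on day 4, then LPS maturation on day 5.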
# [2] = Pharmacokinetics in Sprague Dawley rats, single subcutaneous or intravenous dose (incl. 10, 30, 100 nmol/kg dose response); type: in vivo
# [3] = dose response, single subcutaneous dose 10 nmol/kg, male Sprague Dawley rats, individual animal
# [4] = dose response, single subcutaneous dose 30 nmol/kg, male Sprague Dawley rats, individual animal
# [5] = dose response, single subcutaneous dose 100 nmol/kg, male Sprague Dawley rats, individual animal
# [6] = male Sprague Dawley rats, single intravenous dose 183 nmol/kg, individual animal
# [7] = male, Sprague Dawley, rat, plasma, iv, 183 nmol/kg, single intravenous dose 183 nmol/kg, Mean
# [8] = male, Sprague Dawley, rat, plasma, iv, 183 nmol/kg, single intravenous dose 183 nmol/kg, individual animal
# [9] = single subcutaneous dose 183 nmol/kg, male Sprague Dawley rats, individual animal
substance,measurement,setting,value
"[pGlu]GSPSGIVTS[αMeL]DVPT[Aib][αMeL]LQKILEQERAEKARQQAK([γGlu-AEEA-εLys-C20 diacid])EAAEILAQV-NH2 [SEQ ID NO: 22, Pyr-GSPSGIVTS αMeL DVPT Aib αMeL LQKILEQERAEKARQQAK(γE-(2-[2-(2-Amino-ethoxy)-ethoxy]-acetyl)-ϵK-CO-(CH2)18-CO2H)EAAEILAQV-NH2]",MAPPS Assay >10 donors with diverse MHC,[1]; donors displaying MHC-II peptides / donors tested,1/10
same,peptides displayed on MHC-II complexes,[1]; human dendritic cells from normal donors,at least one peptide cluster on MHC-II complexes in a subset of donors
same,immunogenicity compared with SEQ ID NO:54,[1]; in the MAPPs assay and/or the T cell proliferation assay,substantial improvements in immunogenicity over a compound comprising SEQ ID NO:54
same,MAPPS Assay >10 donors with diverse MHC,[1]; percentage of donors displaying MHC-II peptides,10%
same,AUC0-inf,[2]; [3],2.73 µM·h and 2.81 µM·h and 3.02 µM·h
same,CL/F,[2]; [3],3.60 mL/h/kg and 3.54 mL/h/kg
same,Cmax,[2]; [3],49.5 nM and 51.3 nM and 48.6 nM
same,T1/2,[2]; [3],23.1 h and 41.5 h
same,AUC0-inf,[2]; [4],7.52 µM·h and 8.6 µM·h and 7.16 µM·h
same,CL/F,[2]; [4],3.62 mL/h/kg and 4.25 mL/h/kg
same,Cmax,[2]; [4],126 nM and 132 nM and 128 nM
same,T1/2,[2]; [4],33.6 h and 24.1 h
same,AUC0-inf,[2]; [5],26.7 µM·h and 26 µM·h and 26.3 µM·h
same,CL/F,[2]; [5],3.91 mL/h/kg
same,Cmax,[2]; [5],372 nM and 416 nM and 369 nM
same,T1/2,[2]; [5],25.9 h and 30.7 h
same,AUC0-inf,[2]; [6],88.4 µM·h and 79.6 µM·h and 92.3 µM·h
same,C0,[2]; [6],3240 nM and 5390 nM and 5200 nM
same,CL,[2]; [6],2.30 mL/h/kg and 1.98 mL/h/kg
same,T1/2,[2]; [6],21.3 h and 22.9 h
same,clearance,[2]; [7],2.12 mL/h/kg
same,half-life,[2]; [7],23 h
same,clearance,[2]; [8],2.07 mL/h/kg
same,half-life,[2]; [8],24.7 h
same,half-life,"[2]; male, Sprague Dawley, rat, plasma, sc, 10 nmol/kg, dose response, single subcutaneous dose 10 nmol/kg, individual animal",30.4 h
same,CL/F,"[2]; male, Sprague Dawley, rat, plasma, sc, 10 nmol/kg, dose response, single subcutaneous dose 10 nmol/kg, individual animal, read-out: CL/F (converted)",3.75 mL/h/kg
same,Tmax,"[2]; male, Sprague Dawley, rat, plasma, sc, 10 nmol/kg, dose response, single subcutaneous dose 10 nmol/kg, individual animal, read-out: Tmax",24 h
same,half-life,"[2]; male, Sprague Dawley, rat, plasma, sc, 10 nmol/kg, dose response, single subcutaneous dose 10 nmol/kg, mean",31.7 h
same,CL/F,"[2]; male, Sprague Dawley, rat, plasma, sc, 10 nmol/kg, dose response, single subcutaneous dose 10 nmol/kg, mean, read-out: CL/F (converted)",3.63 mL/h/kg
same,Tmax,"[2]; male, Sprague Dawley, rat, plasma, sc, 10 nmol/kg, dose response, single subcutaneous dose 10 nmol/kg, mean, read-out: Tmax",24 h
same,half-life,"[2]; male, Sprague Dawley, rat, plasma, sc, 30 nmol/kg, dose response, single subcutaneous dose 30 nmol/kg, individual animal",27.4 h
same,CL/F,"[2]; male, Sprague Dawley, rat, plasma, sc, 30 nmol/kg, dose response, single subcutaneous dose 30 nmol/kg, individual animal, read-out: CL/F (converted)",4.07 mL/h/kg
same,Tmax,"[2]; male, Sprague Dawley, rat, plasma, sc, 30 nmol/kg, dose response, single subcutaneous dose 30 nmol/kg, individual animal, read-out: Tmax",24 h
same,half-life,"[2]; male, Sprague Dawley, rat, plasma, sc, 30 nmol/kg, dose response, single subcutaneous dose 30 nmol/kg, mean",28.4 h
same,CL/F,"[2]; male, Sprague Dawley, rat, plasma, sc, 30 nmol/kg, dose response, single subcutaneous dose 30 nmol/kg, mean, read-out: CL/F (converted)",3.98 mL/h/kg
same,Tmax,"[2]; male, Sprague Dawley, rat, plasma, sc, 30 nmol/kg, dose response, single subcutaneous dose 30 nmol/kg, mean, read-out: Tmax",24 h
same,half-life,"[2]; male, Sprague Dawley, rat, plasma, sc, 100 nmol/kg, dose response, single subcutaneous dose 100 nmol/kg, individual animal",28.6 h
same,CL/F,"[2]; male, Sprague Dawley, rat, plasma, sc, 100 nmol/kg, dose response, single subcutaneous dose 100 nmol/kg, individual animal, read-out: CL/F (converted)",3.85 mL/h/kg
same,Tmax,"[2]; male, Sprague Dawley, rat, plasma, sc, 100 nmol/kg, dose response, single subcutaneous dose 100 nmol/kg, individual animal, read-out: Tmax",24 h
same,half-life,"[2]; male, Sprague Dawley, rat, plasma, sc, 100 nmol/kg, dose response, single subcutaneous dose 100 nmol/kg, mean",28.4 h
same,CL/F,"[2]; male, Sprague Dawley, rat, plasma, sc, 100 nmol/kg, dose response, single subcutaneous dose 100 nmol/kg, mean, read-out: CL/F (converted)",3.89 mL/h/kg
same,Tmax,"[2]; male, Sprague Dawley, rat, plasma, sc, 100 nmol/kg, dose response, single subcutaneous dose 100 nmol/kg, mean, read-out: Tmax",24 h
same,half-life,"[2]; male, Sprague Dawley, rat, plasma, sc, 183 nmol/kg, single subcutaneous dose 183 nmol/kg, individual animal",26.2 h
same,CL/F,"[2]; male, Sprague Dawley, rat, plasma, sc, 183 nmol/kg, single subcutaneous dose 183 nmol/kg, individual animal, read-out: CL/F (converted)",4.75 mL/h/kg
same,Tmax,"[2]; male, Sprague Dawley, rat, plasma, sc, 183 nmol/kg, single subcutaneous dose 183 nmol/kg, individual animal, read-out: Tmax",24 h
same,half-life,"[2]; male, Sprague Dawley, rat, plasma, sc, 183 nmol/kg, single subcutaneous dose 183 nmol/kg, mean",23.8 h
same,CL/F,"[2]; male, Sprague Dawley, rat, plasma, sc, 183 nmol/kg, single subcutaneous dose 183 nmol/kg, mean, read-out: CL/F (converted)",5.04 mL/h/kg
same,Tmax,"[2]; male, Sprague Dawley, rat, plasma, sc, 183 nmol/kg, single subcutaneous dose 183 nmol/kg, mean, read-out: Tmax",32 h
same,AUC0-inf,"[2]; rat, plasma, sc, dose response, single subcutaneous dose 10 nmol/kg, male Sprague Dawley rats, mean, read-out: AUC0-inf",2.85 µM·h
same,Cmax,"[2]; rat, plasma, sc, dose response, single subcutaneous dose 10 nmol/kg, male Sprague Dawley rats, mean, read-out: Cmax",49.8 nM
same,AUC0-inf,"[2]; rat, plasma, sc, dose response, single subcutaneous dose 30 nmol/kg, male Sprague Dawley rats, mean, read-out: AUC0-inf",7.76 µM·h
same,Cmax,"[2]; rat, plasma, sc, dose response, single subcutaneous dose 30 nmol/kg, male Sprague Dawley rats, mean, read-out: Cmax",129 nM
same,AUC0-inf,"[2]; rat, plasma, sc, dose response, single subcutaneous dose 100 nmol/kg, male Sprague Dawley rats, mean, read-out: AUC0-inf",26.3 µM·h
same,Cmax,"[2]; rat, plasma, sc, dose response, single subcutaneous dose 100 nmol/kg, male Sprague Dawley rats, mean, read-out: Cmax",386 nM
same,AUC0-inf,"[2]; rat, plasma, sc, single subcutaneous dose 183 nmol/kg, male Sprague Dawley rats, mean, read-out: AUC0-inf",36.8 µM·h
same,Cmax,"[2]; rat, plasma, sc, single subcutaneous dose 183 nmol/kg, male Sprague Dawley rats, mean, read-out: Cmax",583 nM
same,AUC0-inf,"[2]; rat, plasma, male Sprague Dawley rats, single intravenous dose 183 nmol/kg, Mean, read-out: AUC0-inf",86.8 µM·h
same,C0,"[2]; rat, plasma, male Sprague Dawley rats, single intravenous dose 183 nmol/kg, Mean, read-out: C0",4610 nM
same,AUC0-inf,[2]; [9],38.9 µM·h and 34.3 µM·h and 37.1 µM·h
same,CL/F,[2]; [9],5.39 mL/h/kg and 4.99 mL/h/kg
same,Cmax,[2]; [9],783 nM and 439 nM and 527 nM
same,T1/2,[2]; [9],21.8 h and 23.5 h
same,Tmax,[2]; [9],48 h
